Earlier results as cited in patent publication US20030130179A1, “Methods for identifying therapeutic targets for treating infectious disease” (priority 2000, published 2003).

What was measured:
[1] = biological target: thymidylate synthase (TS) (Homo sapiens, UniProt P04818)
[2] = test system: colon and breast cancer

Chain of thymidylate synthase (TS) (P04818 2-313 limits assumed): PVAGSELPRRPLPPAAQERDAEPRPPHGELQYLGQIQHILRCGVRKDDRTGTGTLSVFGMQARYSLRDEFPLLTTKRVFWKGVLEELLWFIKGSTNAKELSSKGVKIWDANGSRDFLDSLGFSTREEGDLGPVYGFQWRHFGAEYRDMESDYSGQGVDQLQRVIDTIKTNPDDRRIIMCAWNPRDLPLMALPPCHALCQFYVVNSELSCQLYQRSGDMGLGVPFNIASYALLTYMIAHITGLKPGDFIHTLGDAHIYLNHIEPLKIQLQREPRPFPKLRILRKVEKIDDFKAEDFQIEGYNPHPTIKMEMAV

SMILES | cytotoxicity profile ([1]; TS inhibitor, relation to TS expression (Copur et al., 1995)) | toxicity to the host ([2]; animal models) | efficacy ([2]; colon and breast cancer animal models) | Cytotoxicity ([1]; model cell-based systems, relation to TS protein levels)
O=c1[nH]c(=O)n([C@@H]2O[C@H](CO)[C@@H](O)[C@H]2O)cc1F [5-fluorouridine] | more toxic to the cells which express low amounts of the enzyme |  |  | 
COC(=O)[C@H](C)NP(=O)(OC[C@H]1O[C@@H](n2cc(/C=C/Br)c(=O)[nH]c2=O)C[C@@H]1O)Oc1ccccc1 (stereo partly shown) [NB1011] |  | little or no toxicity to the host | demonstrated efficacy against colon and breast cancer | proportional to TS protein levels
